Data: patent US20230270855A1, “Genetically Modified T-Cells and PI3K/AKT Inhibitors For Cancer Treatment” (The Research Foundation for The State of University New York, priority 2018, published 2023)

Key:
WT KPC pancreatic tumors = assay: Adoptive transfer of PI3K mutant-expressing T-cells plus BYL719 in tumor-bearing mice; type: in vivo; settings: WT mice implanted with WT KPC cells
Description: To test the anti-tumor efficacy of CTLKPC clones that express one or more PI3K p110α mutants, one or more PI3K p110δ mutants or combinations of PI3K p110α and p110δ mutants, respectively, in vivo, WT mice are implanted with 0.5 million WT KPC cells in the pancreas. After 2 weeks, the pancreatic tumors are well established and are quantified by IVIS imaging. […] Changes in tumor size are monitored by IVIS imaging and survival curves are constructed. Post-mortem examination is performed as described above for analyzing the pancreas. Tumor regression is observed only in the groups that receive adoptive transfer of PI3K mutant-expressing T-cells, plus concurrent treatment with the appropriate PI3K inhibitor.

Akt2W80A = Akt2W80A (Homo sapiens, UniProt P31751, W80A); settings: previous studies; cited from earlier work
Sequence of Akt2W80A (P31751 whole entry W80A): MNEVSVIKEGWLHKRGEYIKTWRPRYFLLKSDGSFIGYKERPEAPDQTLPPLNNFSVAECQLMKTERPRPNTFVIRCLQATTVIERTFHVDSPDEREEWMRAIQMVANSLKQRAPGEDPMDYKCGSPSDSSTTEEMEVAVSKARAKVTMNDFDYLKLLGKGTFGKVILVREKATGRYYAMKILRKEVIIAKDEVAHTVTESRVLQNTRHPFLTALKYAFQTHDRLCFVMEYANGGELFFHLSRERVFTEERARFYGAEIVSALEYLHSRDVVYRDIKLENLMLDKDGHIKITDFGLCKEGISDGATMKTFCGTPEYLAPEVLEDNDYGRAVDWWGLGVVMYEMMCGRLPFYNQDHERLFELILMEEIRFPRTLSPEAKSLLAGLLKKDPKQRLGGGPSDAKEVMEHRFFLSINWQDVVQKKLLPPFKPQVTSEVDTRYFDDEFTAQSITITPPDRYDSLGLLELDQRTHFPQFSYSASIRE

Akt1W80A = Akt1W80A (Homo sapiens, UniProt P31749, W80A); settings: previous studies; cited from earlier work
Sequence of Akt1W80A (P31749 whole entry W80A): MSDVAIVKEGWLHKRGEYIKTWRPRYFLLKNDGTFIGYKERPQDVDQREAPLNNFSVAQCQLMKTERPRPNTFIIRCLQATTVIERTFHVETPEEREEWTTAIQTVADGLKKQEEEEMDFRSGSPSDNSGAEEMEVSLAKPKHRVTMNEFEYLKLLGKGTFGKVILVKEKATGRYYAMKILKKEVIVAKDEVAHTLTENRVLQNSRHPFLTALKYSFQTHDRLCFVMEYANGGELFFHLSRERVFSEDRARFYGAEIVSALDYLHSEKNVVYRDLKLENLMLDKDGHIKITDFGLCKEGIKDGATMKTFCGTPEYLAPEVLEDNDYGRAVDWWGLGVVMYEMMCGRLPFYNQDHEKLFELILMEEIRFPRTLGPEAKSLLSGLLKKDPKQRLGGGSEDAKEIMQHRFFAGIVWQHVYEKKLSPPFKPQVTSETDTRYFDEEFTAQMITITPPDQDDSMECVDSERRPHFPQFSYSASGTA

Structure (SMILES): Cc1nc(NC(=O)N2CCC[C@H]2C(N)=O)sc1-c1ccnc(C(C)(C)C(F)(F)F)c1 [BYL719]
- survival (WT KPC pancreatic tumors): all die from pancreatic tumor progression

Structure (SMILES): NC1(c2ccc(-c3nc4ccn5c(=O)[nH]nc5c4cc3-c3ccccc3)cc2)CCC1 [MK2206]
- inhibition of Akt2W80A mutant (Akt2W80A): completely resistant
- inhibition of Akt1W80A mutant (Akt1W80A): completely resistant
